Marks after values point to notes of the source that are not given here.
What was measured:
Assay in all cases: microbe, parasite or virus in culture
[1] = tested on: A. baumannii clinical isolates
How it was run: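 MIC90 from CLSI broth microdilution (M07-A9) in two clinical-isolate panels. US panel (331 isolates, 2010-2012): AA139 diluted in 0.01% acetic acid/0.1% BSA. Worldwide panel (445 isolates, 2011-2013, four regions): CAMHB, with 0.002% Tween 80 added for AA139 and polymyxin B.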

S. aureus = S. aureus ATCC 25923 MSSA; MHB; mode of 6 replicates
How it was run: (§1)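 Broth microdilution in MHB, 2-fold 12-point series from 128 or 64 down to 0.06 or 0.03 μg mL^−1, 5 × 10^5 CFU mL^−1. Extra runs in CAMHB per CLSI and in MHB with 1% agarose; n ≥ 6.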

P. aeruginosa = settings: mode of 6 replicates
How it was run: as §1

E. coli = tested on: E. coli
How it was run: as §1

A. baumannii = settings: mode of 6 replicates
How it was run: as §1

K. pneumoniae = settings: mode of 6 replicates
How it was run: as §1

S. enterica Typhi = S. enterica Typhi ATCC 14028 control strain, CDC 6516-60; CAMHB; mode of 6 replicates
How it was run: as §1

Substance: colistin
- MIC ([1]; US isolates 2010-2012, isolate CID 1919446, Rep 1): 2 µg/mL
- MIC ([1]; US isolates 2010-2012, isolate CID 1919446, Rep 2): 1 µg/mL
- MIC ([1]; US isolates 2010-2012, isolate CID 1919519, Rep 1): 1 µg/mL
- MIC ([1]; US isolates 2010-2012, isolate CID 1919519, Rep 2): 0.5 µg/mL
- MIC ([1]; US isolates 2010-2012, isolate CID 1919714, Rep 1): > 32 µg/mL
- MIC ([1]; US isolates 2010-2012, isolate CID 1919714, Rep 2): > 32 µg/mL
- MIC ([1]; US isolates 2010-2012, isolate CID 1919942, Rep 1): 2 µg/mL
- MIC ([1]; US isolates 2010-2012, isolate CID 1919942, Rep 2): 2 µg/mL
- MIC ([1]; US isolates 2010-2012, isolate CID 1930670, Rep 1): 4 µg/mL
- MIC ([1]; US isolates 2010-2012, isolate CID 1930670, Rep 2): 2 µg/mL
- MIC ([1]; US isolates 2010-2012, isolate CID 1930676, Rep 1): 4 µg/mL
- MIC ([1]; US isolates 2010-2012, isolate CID 1930676, Rep 2): 2 µg/mL
- MIC ([1]; US isolates 2010-2012, isolate CID 2727597, Rep 1): > 32 µg/mL
- MIC ([1]; US isolates 2010-2012, isolate CID 2727597, Rep 2): 32 µg/mL
- MIC ([1]; US isolates 2010-2012, isolate CID 2727598, Rep 1): 2 µg/mL
- MIC ([1]; US isolates 2010-2012, isolate CID 2727598, Rep 2): 2 µg/mL
- MIC ([1]; US isolates 2010-2012, isolate CID 2727898, Rep 1): 8 µg/mL
- MIC ([1]; US isolates 2010-2012, isolate CID 2727898, Rep 2): 8 µg/mL
- MIC ([1]; US isolates 2010-2012, isolate CID 2728115, Rep 1): 4 µg/mL
- MIC ([1]; US isolates 2010-2012, isolate CID 2728115, Rep 2): 1 µg/mL
- MIC ([1]; US isolates 2010-2012, isolate CID 2728119, Rep 1): 2 µg/mL
- MIC ([1]; US isolates 2010-2012, isolate CID 2728119, Rep 2): 2 µg/mL
- MIC ([1]; US isolates 2010-2012, isolate CID 2728650, Rep 1): 8 µg/mL
- MIC ([1]; US isolates 2010-2012, isolate CID 2728650, Rep 2): 2 µg/mL
- MIC ([1]; US isolates 2010-2012, isolate CID 2728663, Rep 1): 0.5 µg/mL
- MIC ([1]; US isolates 2010-2012, isolate CID 2728663, Rep 2): 0.5 µg/mL
- MIC ([1]; US isolates 2010-2012, isolate CID 2732481, Rep 1): > 32 µg/mL
- MIC ([1]; US isolates 2010-2012, isolate CID 2732481, Rep 2): > 32 µg/mL
- MIC ([1]; US isolates 2010-2012, isolate CID 2732486, Rep 1): 1 µg/mL
- MIC ([1]; US isolates 2010-2012, isolate CID 2732486, Rep 2): 1 µg/mL
- MIC ([1]; US isolates 2010-2012, isolate CID 2762740, Rep 1): > 32 µg/mL
- MIC ([1]; US isolates 2010-2012, isolate CID 2762740, Rep 2): 32 µg/mL
- MIC ([1]; US isolates 2010-2012, isolate CID 2801947, Rep 1): 1 µg/mL
- MIC ([1]; US isolates 2010-2012, isolate CID 2801947, Rep 2): 0.5 µg/mL
- MIC ([1]; US isolates 2010-2012, isolate CID 2801949, Rep 1): 0.25 µg/mL
- MIC ([1]; US isolates 2010-2012, isolate CID 2801949, Rep 2): 0.5 µg/mL
- MIC ([1]; US isolates 2010-2012, isolate CID 2802027, Rep 1): 0.5 µg/mL
- MIC ([1]; US isolates 2010-2012, isolate CID 2802027, Rep 2): 1 µg/mL
- MIC ([1]; US isolates 2010-2012, isolate CID 2802028, Rep 1): 0.5 µg/mL
- MIC ([1]; US isolates 2010-2012, isolate CID 2802028, Rep 2): 1 µg/mL
- MIC ([1]; US isolates 2010-2012, isolate CID 2802029, Rep 1): 0.5 µg/mL
- MIC ([1]; US isolates 2010-2012, isolate CID 2802029, Rep 2): 0.5 µg/mL
- MIC ([1]; US isolates 2010-2012, isolate CID 2802031, Rep 1): 0.5 µg/mL
- MIC ([1]; US isolates 2010-2012, isolate CID 2802031, Rep 2): 0.5 µg/mL
- MIC ([1]; US isolates 2010-2012, isolate CID 2802109, Rep 2): 0.5 µg/mL
- MIC ([1]; US isolates 2010-2012, isolate CID 2802111, Rep 2): 0.25 µg/mL
- MIC ([1]; US isolates 2010-2012, isolate CID 2802187, Rep 1): 1 µg/mL
- MIC ([1]; US isolates 2010-2012, isolate CID 2802187, Rep 2): 1 µg/mL
- BMD MIC (S. aureus): >128 µg/mL
- BMD MIC (P. aeruginosa; P. aeruginosa ATCC 27853 control strain, CAMHB): 0.125 µg/mL
- BMD MIC (P. aeruginosa; P. aeruginosa ATCC 27853 control strain, MHB): 0.125 µg/mL
- BMD MIC (P. aeruginosa; P. aeruginosa FADDI-070, MDR, PmxR, MHB/CAMHB): 64 µg/mL
- BMD MIC (E. coli; E. coli ATCC 25922 FDA control strain, CAMHB, mode of 6 replicates): 0.06 to 0.125 µg/mL
- BMD MIC (E. coli; E. coli ATCC 25922 FDA control strain, MHB, mode of 6 independent biological replicates): 0.25 µg/mL
- BMD MIC (E. coli; E. coli ATCC 700926 K12 (MG1655), CAMHB, mode of 6 replicates): ≤0.03 µg/mL
- BMD MIC (E. coli; E. coli ATCC 700928 CFT073 UPEC, CAMHB, mode of 6 replicates): ≤0.25 µg/mL
- BMD MIC (E. coli; E. coli CI 12-6-83 Hong Kong, mcr-1 pos, ESBL, CAMHB, mode of 6 replicates): 4 µg/mL
- BMD MIC (A. baumannii; A. baumannii ATCC 19636 type strain, CAMHB): 0.06 µg/mL
- BMD MIC (A. baumannii; A. baumannii ATCC 19636 type strain, MHB): 0.06 µg/mL
- BMD MIC (A. baumannii; A. baumannii Greece CI, XDR, PmxR, MHB): >32 µg/mL
- BMD MIC (K. pneumoniae; K. pneumoniae ATCC 13883 type strain (polymyxin/colistin heteroresistant), MHB): 0.03-4# μg mL-1
- BMD MIC (K. pneumoniae; K. pneumoniae ATCC 700603 (K6), MDR, OXA-2/SHV-18, CAMHB): 0.125 µg/mL
- BMD MIC (K. pneumoniae; K. pneumoniae ATCC 700603 (K6), MDR, OXA-2/SHV-18, MHB): 0.03 µg/mL
- BMD MIC (K. pneumoniae; K. pneumoniae BAA-2146, MDR, ESBL, NDM-1 pos, MHB): 0.06 µg/mL
- BMD MIC (K. pneumoniae; K. pneumoniae Greece CI 8_GR_13, XDR, KPC-2, PmxR, MHB): >64 µg/mL
- BMD MIC (S. enterica Typhi): 0.03 µg/mL

From PMC7311426, “An amphipathic peptide with antibiotic activity against multidrug-resistant Gram-negative bacteria” (Nature Communications, 2020)
